From patent EP2090164B1, “A rodenticide bait based on a synergetic association of anticoagulant active ingredients” (priority 2008, dated 2009)

How the values were obtained:
dog = details: active ingredient; cited from earlier work
mouse = details: active ingredient; cited from earlier work
rat = details: active ingredient; cited from earlier work
cat = details: active ingredient; cited from earlier work
infesting murine species = assay type: in vivo; details: same amount of anticoagulant
[1] = cited from earlier work
[2] = WHO, 1995, cited from earlier work
murine population = details: in vivo; cited from earlier work
Rattus norvegicus = details: young prepubertal; females of Rattus norvegicus; cited from earlier work
Mus musculus = details: both genders and all ages of the Mus musculus; cited from earlier work
[3] = liver and kidney, two-phase course

SMILES | a.p. LD50 (dog) [mg/kg] | a.p. LD50 (mouse) [mg/kg] | a.p. LD50 (rat) [mg/kg] | a.p. LD50 (cat) [mg/kg] | disinfesting action with respect to that of brodifacoum (infesting murine species) | half-life in man [1] [days] | elimination from both liver and kidney, rather rapid initial phase [2, 3] [days] | elimination from both liver and kidney, second, much slower, phase [2, 3] [days] | half-life in the pancreas ([2]; pancreas) [days] | eliminating of the treated murine population (murine population) | activity as chemosterilant (Rattus norvegicus) | activity as chemosterilant (Mus musculus)
O=c1oc2ccccc2c(O)c1C1CC(c2ccc(-c3ccc(Br)cc3)cc2)Cc2ccccc21 (stereo not drawn) [BRODIFACOUM, brodifacoum] | 0.25 to 3.6 | 0.4 | 0.4 | 25 |  |  |  |  |  |  |  | 
O=c1oc2ccccc2c(O)c1C(CC(O)c1ccc(-c2ccc(Br)cc2)cc1)c1ccccc1 (stereo not drawn) [BROMADIOLON, bromadiolon] | >10.0 | 1.75 | 1.125 | >25 | inferior |  |  |  |  |  |  | 
O=c1oc2ccccc2c(O)c1C1CC(c2ccc(-c3ccccc3)cc2)Cc2ccccc21 (stereo not drawn) [DIPHENACOUM, diphenacoum] | >50.0 | 0.8 | 1.8 | >100 | inferior | 11.5 | 3 | 118 to 120 | 182 |  |  | 
OCC(O)CCl (stereo not drawn) [α-chlorohydrin] |  |  |  |  |  |  |  |  |  | up to 85% | not active | not active
